Literature values as cited in patent EP2221049A2, “SOLID PHARMACEUTICAL COMPOSITION OF DED ANOSINE” (Blanver Farmoquimica, LTDA, priority 2007, dated 2009).

Conditions: pH below 3, 37°C

time period in which 10% of didanosine is decomposed to hypoxanthine: < 2 min
Structure (SMILES): OC[C@@H]1CC[C@H](n2cnc3c(O)ncnc32)O1 [didanosine, 2',3'-dideoxyinosine]
